In patent publication US20200085791A1, “[(PHENYLSULFONYL)OCTAHYDRO-EPIMINOISOINDOL-YL](1H-1,2,3-TRIAZOL-5-YL)METHANONES” (Bayer Pharma Aktiengesellschaft, priority 2016, published 2020):

Target: T1, recombinant human AKR1C3 (Aldo-keto reductase family 1 member C3) (Homo sapiens, UniProt P42330)
T1 construct: GST (cleaved yes); made in house; host or cells: E. coli
T1 sequence (P42330 1-323): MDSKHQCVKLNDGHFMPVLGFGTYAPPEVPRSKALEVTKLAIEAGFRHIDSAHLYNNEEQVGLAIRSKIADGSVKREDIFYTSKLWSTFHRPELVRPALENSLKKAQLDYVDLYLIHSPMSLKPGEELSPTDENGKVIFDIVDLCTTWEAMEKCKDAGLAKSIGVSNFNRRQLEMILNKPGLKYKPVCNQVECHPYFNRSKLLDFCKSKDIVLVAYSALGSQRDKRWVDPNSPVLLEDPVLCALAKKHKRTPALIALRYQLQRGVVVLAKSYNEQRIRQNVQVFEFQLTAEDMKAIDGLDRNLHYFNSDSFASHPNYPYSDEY
Experiment: In Vitro Assay 1: AKR1C3-inhibitory activity (Coumberone to Coumberol fluorescence assay)
Format: biochemical
Conditions: recombinant enzyme, Coumberone 0.3 μM, NADPH 10 μM, 15 min pre-incubation, 4-parameter fit; average or median values
Method: In Vitro Assay 1: AKR1C3-Inhibitory Activity
The AKR1C3-inhibitory activity of the substances of the present invention was measured in the AKR1C3 assay described in the paragraphs below.
Essentially, the enzyme activity is measured by quantification of the Coumberol from Coumberone (Halim, M., Yee, D. J., and Sames, D., J. AM. CHEM. SOC. 130, 14123-14128 (2008) and Yee, D. J., Balsanek, V., Bauman, D. R., Penning, T. M., and Sames, D., Proc. Natl. Acad. Sci. USA 103, 13304-13309 (2006)). In this test, the increase of the highly fluorescent Coumberol by NADPH- (nicotinamide adenine dinucleotide phosphate)-dependent reduction of the non-fluorescent Coumberone by AKR1C3 can be determined.
The enzyme used was recombinant human AKR1C3 (Aldo-keto reductase family 1 member C3) (GenBank Accession No. NM_003739). This was expressed in E. coli as GST (glutathione S transferase) fusion protein and purified by glutathione Sepharose affinity chromatography. The GST was removed by digestion with thrombin and subsequent size exclusion chromatography (Dufort, I., Rheault, P., Huang, X F., Soucy, P., and Luu-The, V., Endocrinology 140, 568-574 (1999)).
For the assay, 50 nl of a 100-fold concentrated solution of the test substance in DMSO were pipetted into a black low-volume 384-well microtiter plate (Greiner Bio-One, Frickenhausen, Germany), 2.5 μl of a solution of AKR1C3 in assay buffer [50 mM potassium phosphate buffer pH 7, 1 mM DTT, 0.0022% (w/v) Pluronic F-127, 0.01% BSA (w/v) and protease inhibitor cocktail (Complete, EDTA-free Protease Inhibitor Cocktail from Roche)] were added and the mixture was incubated for 15 min to allow pre-binding of the substances to the enzyme prior to the enzyme reaction. The enzyme reaction was then started by addition of 2.5 μl of a solution of NADPH (20 μM→final concentration in 5 μl of assay volume is 10 μM) and Coumberone (0.6 μM→final concentration in 5 μl of assay volume is 0.3 μM) in assay buffer, and the resulting mixture was incubated at […] for the reaction time of typically 90 min. The concentration of the AKR1C3 and the reaction time was adapted to the respective activity of the enzyme preparation and adjusted such that the assay was carried out in the linear range.
Typical AKR1C3 concentrations were in the region of 1 nM. The reaction was stopped by addition of 2.5 μl of a stop solution consisting of the inhibitor EM-1404 [F. Labrie et al. U.S. Pat. No. 6,541,463, 2003] (3 μM→final concentration in 7.5 μl of assay volume is 1 μM). The fluorescence of the Coumberole was then measured at 520 nm (excitation at 380 nm) using a suitable measuring instrument (Pherastar from BMG Labtechnologies). The intensity of the fluorescence was used as a measure of the amount of Coumberole formed and thus of the enzyme activity of AKR1C3. The data were normalized (enzyme reaction without inhibitor—0% inhibition; all other assay components, but no enzyme=100% inhibition).

Compound	IC50 [nM]
COc1ccc(OC)c(S(=O)(=O)N2[C@@H]3CC[C@H]2[C@@H]2CN(C(=O)c4cnn[nH]4)C[C@@H]23)c1 [Example 36, {(3aR,4R,7S,7aS)-8-[(2,5-dimethoxyphenyl)sulfonyl]octahydro-2H-4,7-epiminoisoindol-2-yl}(1H-1,2,3-triazol-5-yl)methanone]	935
O=C(c1cnn[nH]1)N1C[C@@H]2[C@H](C1)[C@H]1CC[C@@H]2N1S(=O)(=O)c1cccc(F)c1Cl [Example 64, {(3aR,4R,7S,7aS)-8-[(2-chloro-3-fluorophenyl)sulfonyl]octahydro-2H-4,7-epiminoisoindol-2-yl}(1H-1,2,3-triazol-5-yl)methanone]	12
Cc1ccccc1S(=O)(=O)N1[C@@H]2CC[C@H]1[C@H]1CN(C(=O)c3c[nH]nn3)C[C@H]12 [Example 16, {(3aR,4S,7R,7aS)-8-[(2-methylphenyl)sulfonyl]octahydro-2H-4,7-epiminoisoindol-2-yl}(1H-1,2,3-triazol-4-yl)methanone]	5
O=C(c1c[nH]nn1)N1C[C@@H]2[C@H](C1)[C@@H]1CC[C@H]2N1S(=O)(=O)c1cccc(C(F)(F)F)c1 [Example 2, 1H-1,2,3-triazol-4-yl[(3aR,4S,7R,7aS)-8-{[3-(trifluoromethyl)phenyl]sulfonyl}octahydro-2H-4,7-epiminoisoindol-2-yl]methanone]	61
O=C(c1cnn[nH]1)N1C[C@@H]2[C@H](C1)[C@H]1CC[C@@H]2N1S(=O)(=O)c1ccc(Cl)c(Cl)c1 [Example 37, {(3aR,4R,7S,7aS)-8-[(3,4-dichlorophenyl)sulfonyl]octahydro-2H-4,7-epiminoisoindol-2-yl}(1H-1,2,3-triazol-5-yl)methanone]	82
O=C(c1c[nH]nn1)N1C[C@@H]2[C@H](C1)[C@@H]1CC[C@H]2N1S(=O)(=O)c1cccc(Cl)c1F [Example 6, {(3aR,4S,7R,7aS)-8-[(3-chloro-2-fluorophenyl)sulfonyl]octahydro-2H-4,7-epiminoisoindol-2-yl}(1H-1,2,3-triazol-4-yl)methanone]	31
COc1ccc(S(=O)(=O)N2[C@@H]3CC[C@H]2[C@@H]2CN(C(=O)c4cnn[nH]4)C[C@@H]23)cc1OC [Example 41, {(3aR,4R,7S,7aS)-8-[(3,4-dimethoxyphenyl)sulfonyl]octahydro-2H-4,7-epiminoisoindol-2-yl}(1H-1,2,3-triazol-5-yl)methanone]	731
N#Cc1cc(S(=O)(=O)N2[C@@H]3CC[C@H]2[C@@H]2CN(C(=O)c4cnn[nH]4)C[C@@H]23)ccc1F [Example 50, 2-fluoro-5-{[(3aR,4R,7S,7aS)-2-(1H-1,2,3-triazol-5-ylcarbonyl)octahydro-1H-4,7-epiminoisoindol-8-yl]sulfonyl}benzonitrile]	999
COc1cc(C)ccc1S(=O)(=O)N1[C@@H]2CC[C@H]1[C@@H]1CN(C(=O)c3cnn[nH]3)C[C@@H]12 [Example 58, {(3aR,4R,7S,7aS)-8-[(2-methoxy-4-methylphenyl)sulfonyl]octahydro-2H-4,7-epiminoisoindol-2-yl}(1H-1,2,3-triazol-5-yl)methanone]	110
N#Cc1ccccc1S(=O)(=O)N1[C@@H]2CC[C@H]1[C@@H]1CN(C(=O)c3cnn[nH]3)C[C@@H]12 [Example 44, 2-{[(3aR,4R,7S,7aS)-2-(1H-1,2,3-triazol-5-ylcarbonyl)octahydro-1H-4,7-epiminoisoindol-8-yl]sulfonyl}benzonitrile]	58
O=C(c1cnn[nH]1)N1C[C@@H]2[C@H](C1)[C@H]1CC[C@@H]2N1S(=O)(=O)c1ccc([N+](=O)[O-])cc1 [Example 32, {(3aR,4R,7S,7aS)-8-[(4-nitrophenyl)sulfonyl]octahydro-2H-4,7-epiminoisoindol-2-yl}(1H-1,2,3-triazol-5-yl)methanone]	420
Cc1cc(Cl)cc(S(=O)(=O)N2[C@@H]3CC[C@H]2[C@@H]2CN(C(=O)c4cnn[nH]4)C[C@@H]23)c1 [Example 68, {(3aR,4R,7S,7aS)-8-[(3-chloro-5-methylphenyl)sulfonyl]octahydro-2H-4,7-epiminoisoindol-2-yl}(1H-1,2,3-triazol-5-yl)methanone]	48
